“Also recorded” adds a separate entry of the source.
Legend:
[1] = system: photoreceptors (rods and cones) of rd10 mouse; conditions: cited from earlier work
cones of PDE-β−/− mice = assay: Cone survival in PDE-β−/− mice after systemic insulin or streptozotocin treatment (lacZ staining of retinal flat mounts); assay type: in vivo, mouse; conditions: for cone survival: 4 weeks of treatment from PW3, read at PW7, versus uninjected control; for cone survival after prolonged treatment: 7 weeks of treatment from PW3, read at PW10, versus untreated
Method: (§1) Rapamycin, Streptozotocin and Insulin treatments were performed as follows. Rapamycin was diluted to 10 mg/ml in ethanol. The stock was diluted to 0.015 mg/ml in drinking water over a period of 2 weeks. A single intraperitoneal injection of 150 μl (12 mg/ml in 0.1M citric acid, ph4.5) of Streptozotocin was injected at postnatal day (P) 21. Insulin was injected intraperitoneally daily starting at P21. The concentration was increased weekly such that the first week, 10 U/kg body weight, the second 15 U/kg, the third 20 U/kg and fourth 30 U/kg body weight, were injected. In the treatment that lasted 7 weeks 30 U/kg body weight were injected for the remaining 3 weeks. Blood glucose levels were measured by collecting a drop of blood from the tail directly onto a test strip from TrueTrack smart system (CVS pharmacy). Eye bleeds were avoided due to the fact that cell survival in the retina was being assayed.
Quantification of cone survival was performed as follows. The colors of the bright light image were inverted and processed with Imaris software (Bitplane Inc) to calculate the percentage of blue surface area versus the total retinal surface area (see also FIG. 17). A minimum of 8 retinae per treatment, and for the control, were analyzed. P-values were calculated by the student's t-test.

HIF-1α = HIF-1α immunofluorescence on retinal flat mounts of treated PDE-β−/− mice; assay type: in vivo, mouse; conditions: PDE-β−/− mice treated for 4 weeks
Method: as §1, with “Eye bleeds were avoided due to the fact that cell survival in the retina was being assayed.” left out
(§2) Whole mount and section antibody staining were performed as previously (Punzo, C. & Cepko, C. L. (2008) Dev Dyn 237, 1034-42) described with the following modifications. […] Time points analyzed for the rod and cone death kinetics (P: postnatal day; PW: postnatal week): PDE-β−/−: P10-P20 daily, PW3-10 weekly, PW 12, PW15, PW18, PW45; PDE-γ-KO: P10-P20 daily, PW3-PW10 weekly, PW15, PW25, PW45; Rho-KO: PW4-PW8 weekly, PW10, PW11, PW17, PW20, PW25, PW27, PW31, PW34, PW37, PW45, PW55, PW80; P23H: PW5, PW10, PW16, PW25, PW30, PW35, PW40, PW65, PW70, PW75, PW80, PW85.

p*-mTOR in dorsal cones = assay: Retinal explant culture of wild type mice, p*-mTOR immunofluorescence; assay type: cell-based, mouse; conditions: wild type retinal explants, 4 hours, absence of glucose, leucine added at 200 μM
Method: Retinal explant cultures: The retina was dissected free from other ocular tissues in DMEM, and then incubated in conditions according to the chart in FIG. 10a. Regular DMEM was at 4.5 g/L glucose, low glucose was at 1 g/L, leucine was added at 200 μM and FCS at 10%. Incubation was performed for 4 h and the retinae were fixed and processed for antibody staining as described below.
as §2, with “modifications. Antibody staining for LAMP-2: Triton was replaced with 0.01% Saponin. Antibody staining for p*-mTOR and p*-S6: PBS was replaced by TBS in every step of the procedure.” for “modifications.”

Molecule: proinsulin
- hyperglycemia ([1]; mice treated with proinsulin): did not develop hyperglycemia
- photoreceptor death ([1]; rd10 mouse, constitutive expression, rods and cones): delays photoreceptor death

Molecule: insulin
- cone survival (cones of PDE-β−/− mice): improved cone survival; also recorded: prolonged cone survival
- cone survival after prolonged treatment (cones of PDE-β−/− mice): did not show any significant improvement of cone survival; also recorded: no significant difference in cone survival
- upregulation of HIF-1α in cones (HIF-1α): did not show the upregulation of HIF-1α; also recorded: prevented the upregulation of HIF-1α

Molecule: CN(N=O)C(=O)N[C@H]1C(O)O[C@H](CO)[C@@H](O)[C@@H]1O (mixture of isomers) [streptozotocin]
- cone survival (cones of PDE-β−/− mice): decrease in cone survival
- cone survival after prolonged treatment (cones of PDE-β−/− mice): no significant difference in cone survival

Molecule: CC(C)C[C@H](N)C(=O)O [leucine]
- dorsal p*-mTOR with increased leucine (p*-mTOR in dorsal cones): abolished

From patent US20110318424A1, “METHODS FOR PROLONGING VIABILITY OF CONE CELLS USING MODULATORS OF THE MAMMALIAN TARGET OF RAPAMYCINE (mTOR)” (PRESIDENT AND FELLOWS OF HARVARD COLLEGE, priority 2008, published 2011)
